Source: patent US20090239841A1, “Diaryl Ureas as CB1 Antagonists” (priority 2004, published 2009)

What follows are compounds tested against T1, hCB1 (Homo sapiens, UniProt P21554) (assay: Agonist-induced GTP binding (GTPγ35S) assay at CB1, Example 8). Settings: not given.
T1 construct: made in house; host or cells: Sf9 insect cells (baculovirus), P2 membranes
Assay type: biochemical
Method in brief: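 Antagonism read as inhibition of 1 nM CP55,940-stimulated GTPγ35S ([…]) binding, compounds at 10^−10 to 10^−5 M. Baculovirus-infected Sf9 membranes bearing hCB1 plus G-protein subunits, 60 min room-temperature incubation with 5 μM GDP. Filtration and scintillation counting; data as percent over basal.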

T1 sequence (P21554 whole entry): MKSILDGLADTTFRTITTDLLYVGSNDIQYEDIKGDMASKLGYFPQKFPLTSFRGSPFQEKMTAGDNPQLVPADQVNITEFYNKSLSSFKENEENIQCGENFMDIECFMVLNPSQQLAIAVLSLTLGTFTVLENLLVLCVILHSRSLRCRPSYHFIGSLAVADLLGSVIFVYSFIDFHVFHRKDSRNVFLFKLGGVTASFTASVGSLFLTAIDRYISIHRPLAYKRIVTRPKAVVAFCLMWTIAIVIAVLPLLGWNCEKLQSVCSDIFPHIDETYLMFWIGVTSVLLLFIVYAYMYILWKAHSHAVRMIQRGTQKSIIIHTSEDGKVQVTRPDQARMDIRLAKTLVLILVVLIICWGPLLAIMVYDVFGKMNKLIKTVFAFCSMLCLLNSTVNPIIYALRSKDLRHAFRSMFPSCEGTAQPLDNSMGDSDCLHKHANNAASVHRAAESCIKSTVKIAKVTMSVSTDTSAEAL

| SMILES | IC50 |
| --- | --- |
| O=C(Nc1ccc(OC(F)F)cc1)Nc1ccnc(Cl)c1 [Compound 628, 1-(2-chloropyridin-4-yl)-3-[4-(difluoromethoxy)phenyl]urea] | < 2000 nM |

Same assay, conditions: IC50 at CB1, determined as described in Example 8; read-out: IC50

| SMILES | IC50 |
| --- | --- |
| Cc1cc(NC(=O)Nc2ccc(OC(C)C)cc2)ccc1F [Compound 693, 1-(4-fluoro-3-methylphenyl)-3-(4-isopropoxyphenyl)urea] | < 2000 nM |
| CCC(=O)c1ccc(NC(=O)Nc2ccc(C)c(C)c2)cc1 [Compound 733, 1-(3,4-dimethylphenyl)-3-(4-propionylphenyl)urea] | < 2000 nM |
| Cc1cccc(NC(=O)Nc2ccc(N3CCOCC3)c(Cl)c2)c1 [Compound 318, 1-(3-chloro-4-morpholin-4-ylphenyl)-3-(3-methylphenyl)urea] | < 2000 nM |
| CCCc1ccc(NC(=O)Nc2cccc(C)c2)cc1 [Compound 292, 1-(3-methylphenyl)-3-(4-propylphenyl)urea] | < 2000 nM |
| Cc1ccc(NC(=O)Nc2ccccc2)cc1Cl [Compound 435, 1-(3-chloro-4-methylphenyl)-3-phenylurea] | < 2000 nM |
| CCCc1ccc(NC(=O)Nc2ccc(C#N)cc2)cc1 [Compound 349, 1-(4-cyanophenyl)-3-(4-propylphenyl)urea] | < 2000 nM |
| CCOC(=O)c1ccc(NC(=O)Nc2cccc(C(=O)OCC)c2)cc1 [Compound 722, ethyl 3-[({[4-(ethoxycarbonyl)phenyl]amino}carbonyl)amino] benzoate] | < 2000 nM |
| CC(C)c1ccc(NC(=O)Nc2ccc(F)cc2)cc1 [Compound 326, 1-(4-fluorophenyl)-3-(4-isopropylphenyl)urea] | < 2000 nM |
| N#CCOc1ccc(NC(=O)Nc2cccc(OC(F)F)c2)cc1 [Compound 783, N-[4-(cyanomethoxy)phenyl]-N′-[3-(difluoromethoxy)phenyl]urea] | < 2000 nM |
| Cc1ccc(NC(=O)Nc2ccc(F)c(F)c2)cc1F [Compound 774, 1-(3,4-difluorophenyl)-3-(3-fluoro-4-methylphenyl)urea] | < 2000 nM |
| CCOC(=O)c1ccc(NC(=O)Nc2cccc(OC(F)F)c2)cc1 [Compound 678, ethyl 4-[({[3-(difluoromethoxy)phenyl]amino}carbonyl)amino]benzoate] | < 2000 nM |
| CCc1ccc(NC(=O)Nc2cc(F)cc(F)c2)cc1 [Compound 657, 1-(3,5-difluorophenyl)-3-(4-ethylphenyl)urea] | < 2000 nM |
| COc1ccc(NC(=O)Nc2ccc(CC#N)cc2)cc1 [Compound 586, 1-[4-(cyanomethyl)phenyl]-3-(4-methoxyphenyl)urea] | < 2000 nM |
| COCc1cccc(NC(=O)Nc2ccc(C(=O)OC)cc2)c1 [Compound 665, methyl 4-[({[3-(methoxymethyl)phenyl]amino}carbonyl)amino]benzoate] | < 2000 nM |
| Cc1ccc(NC(=O)Nc2ccc(C)c(Cl)c2)cc1F [Compound 776, 1-(3-chloro-4-methylphenyl)-3-(3-fluoro-4-methylphenyl)urea] | < 2000 nM |
| CCCOc1ccc(NC(=O)Nc2ccc(OC)cc2)cc1 [Compound 547, 1-(4-methoxyphenyl)-3-(4-propoxyphenyl)urea] | < 2000 nM |
| N#CCOc1ccc(NC(=O)Nc2ccc(OC(F)F)cc2)cc1 [Compound 582, 1-[4-(cyanomethoxy)phenyl]-3-[4-(difluoromethoxy)phenyl]urea] | < 2000 nM |

| SMILES | IC50 |
| --- | --- |
| CCOc1cccc(NC(=O)Nc2ccc(C)cc2C)c1 [Compound 703, 1-(2,4-dimethylphenyl)-3-(3-ethoxyphenyl)urea] | < 2000 nM |
| N#CCOc1ccc(NC(=O)Nc2ccc(F)cc2)cc1 [Compound 467, 1-[4-(cyanomethoxy)phenyl]-3-(4-fluorophenyl)urea] | < 2000 nM |
| Cc1ccc(NC(=O)Nc2ccc(Cl)nc2)cc1F [Compound 781, 1-(6-chloropyridin-3-yl)-3-(3-fluoro-4-methylphenyl)urea] | < 2000 nM |
| CCc1ccccc1NC(=O)Nc1cccc(OC(F)F)c1 [Compound 378, 1-[3-(difluoromethoxy)phenyl]-3-(2-ethylphenyl)urea] | < 2000 nM |
| COCc1ccc(NC(=O)Nc2cccc(F)c2)cc1 [Compound 360, 1-(3-fluorophenyl)-3-[4-(methoxymethyl)phenyl]urea] | < 2000 nM |
| CCOC(=O)c1ccc(NC(=O)Nc2ccc(F)cc2C(F)(F)F)cc1 [Compound 778, ethyl 4-[({[4-fluoro-2-(trifluoromethyl)phenyl]amino}carbonyl)amino]benzoate] | < 2000 nM |
| CC(=O)c1cccc(NC(=O)Nc2ccc(OC(C)C)cc2)c1 [Compound 423, 1-(3-acetylphenyl)-3-(4-isopropoxyphenyl)urea] | < 2000 nM |
| CCOC(=O)c1ccc(NC(=O)Nc2cccc(C(C)=O)c2)cc1 [Compound 512, ethyl 4-({[(3-acetylphenyl)amino]carbonyl}amino)benzoate] | < 2000 nM |
| CCOc1cccc(NC(=O)Nc2ccc(OC(F)(F)F)cc2)c1 [Compound 531, 1-(3-ethoxyphenyl)-3-[4-(trifluoromethoxy)phenyl]urea] | < 2000 nM |
| N#CCc1ccc(NC(=O)Nc2ccc(OC(F)F)cc2)cc1 [Compound 581, 1-[4-(cyanomethyl)phenyl]-3-[4-(difluoromethoxy)phenyl]urea] | < 2000 nM |
| COc1ccc(NC(=O)Nc2ccc(OCC#N)cc2)cc1 [Compound 589, 1-[4-(cyanomethoxy)phenyl]-3-(4-methoxyphenyl)urea] | < 2000 nM |
| CC(C)c1ccc(NC(=O)Nc2ccc([N+](=O)[O-])cc2)cc1 [Compound 528, 1-(4-isopropylphenyl)-3-(4-nitrophenyl)urea] | < 2000 nM |
| Cc1cc(C)cc(NC(=O)Nc2cccc(OC(C)C)c2)c1 [Compound 707, 1-(3,5-dimethylphenyl)-3-(3-isopropoxyphenyl)urea] | < 2000 nM |
| N#CCOc1ccc(NC(=O)Nc2cccc(Cl)c2)cc1 [Compound 490, 1-(3-chlorophenyl)-3-[4-(cyanomethoxy)phenyl]urea] | < 2000 nM |
| CCCc1ccc(NC(=O)Nc2ccc([N+](=O)[O-])cc2)cc1 [Compound 529, 1-(4-nitrophenyl)-3-(4-propylphenyl)urea] | < 2000 nM |
| CCOc1ccc(NC(=O)Nc2ccc(S(C)(=O)=O)cc2)cc1 [Compound 596, 1-(4-ethoxyphenyl)-3-[4-(methylsulfonyl)phenyl]urea] | < 2000 nM |
| CCC(=O)c1ccc(NC(=O)Nc2cccc(C(=O)OC)c2)cc1 [Compound 720, methyl 3-({[(4-propionylphenyl)amino]carbonyl}amino)benzoate] | < 2000 nM |

Same assay, conditions: Table I; IC50 at CB1, GTP binding with 1 nM CP55,940; read-out: IC50

| SMILES | IC50 |
| --- | --- |
| CCc1cccc(NC(=O)Nc2ccc(OC(F)F)cc2)c1 [Compound 11, N-[4-(difluoromethoxy)phenyl]-N′-(3-ethylphenyl)urea] | < 2000 nM |

Same assay, conditions: Table II; IC50 at CB1, GTP binding with 1 nM CP55,940; read-out: IC50

| SMILES | IC50 |
| --- | --- |
| CCCOc1ccc(NC(=O)Nc2cccc(F)c2)cc1 [Compound 209, N-(3-fluorophenyl)-N′-(4-propoxyphenyl)urea] | < 2000 nM |
| COc1cccc(NC(=O)Nc2ccc(C(C)=O)cc2)c1 [Compound 258, N-(4-acetylphenyl)-N′-(3-methoxyphenyl)urea] | < 2000 nM |
| N#Cc1cc(NC(=O)Nc2ccc(OC(F)F)cc2)ccc1F [Compound 139, N-(3-cyano-4-fluorophenyl)-N′-[4-(difluoromethoxy)phenyl]urea] | < 2000 nM |
| O=C(Nc1ccc(OC(F)F)cc1)Nc1ccc(Cl)c(Cl)c1 [Compound 94, N-(3,4-dichlorophenyl)-N′-[4-(difluoromethoxy)phenyl]urea] | < 2000 nM |
| Cc1ccc(NC(=O)Nc2cccc(F)c2)cc1 [Compound 173, N-(3-fluorophenyl)-N′-(4-methylphenyl)urea] | < 2000 nM |
| O=C(Nc1ccc(OC(F)F)cc1)Nc1ccc(Br)nc1 [Compound 114, N-(6-bromopyridin-3-yl)-N′-[4-(difluoromethoxy)phenyl]urea] | < 2000 nM |
| O=C(Nc1ccc(OC(F)F)cc1)Nc1cccc(-c2cnccn2)c1 [Compound 65, N-[4-(difluoromethoxy)phenyl]-N′-(3-pyrazin-2-ylphenyl)urea] | < 2000 nM |
| CC(=O)c1ccc(NC(=O)Nc2ccc(C(C)C)cc2)cc1 [Compound 196, N-(4-acetylphenyl)-N′-(4-isopropylphenyl)urea] | < 2000 nM |
| O=C(Nc1ccc(OC(F)F)cc1)Nc1cccc(-c2ccccn2)c1 [Compound 62, N-[4-(difluoromethoxy)phenyl]-N′-(3-pyridin-2-ylphenyl)urea] | < 2000 nM |
| CCOC(=O)c1cccc(NC(=O)Nc2ccc(OC(F)F)cc2)c1 [Compound 148, ethyl 3-[({[4-(difluoromethoxy)phenyl]amino}carbonyl)amino]benzoate] | < 2000 nM |
| COc1ccc(NC(=O)Nc2ccc(C(C)=O)cc2)cc1 [Compound 260, N-(4-acetylphenyl)-N′-(4-methoxyphenyl)urea] | < 2000 nM |
| CC(=O)c1cccc(NC(=O)Nc2ccc(C(C)C)cc2)c1 [Compound 195, N-(3-acetylphenyl)-N′-(4-isopropylphenyl)urea] | < 2000 nM |
| CS(=O)(=O)N1CCc2cc(NC(=O)Nc3ccc(OC(F)F)cc3)ccc21 [Compound 109, N-[4-(difluoromethoxy)phenyl]-N′-[1-(methylsu1fonyl)-2,3-dihydro-1H-indol-5-yl]urea] | < 2000 nM |
| Cc1ccc(NC(=O)Nc2ccc(-n3cnc(Cl)c3Cl)cc2)cc1 [Compound 166, N-[4-(4,5-dichloro-1H-imidazol-1-yl)phenyl]-N′-(4-methylphenyl)urea] | < 2000 nM |
| CCOc1ccc(NC(=O)Nc2cccc(F)c2)cc1 [Compound 205, N-(4-ethoxyphenyl)-N′-(3-fluorophenyl)urea] | < 2000 nM |
| O=C(Nc1ccc(OC(F)F)cc1)Nc1ccc(N2CCOCC2)c(Cl)c1 [Compound 81, N-(3-chloro-4-morpholin-4-ylphenyl)-N′-[4-(difluoromethoxy)phenyl]urea] | < 2000 nM |
| O=C(Nc1ccc(OC(F)F)cc1)Nc1ccc2[nH]ncc2c1 [Compound 133] | < 2000 nM |
